Data as given in publication PMC2783186 (Journal of medicinal chemistry, 2009).

Experiments:
[1] = tested on: Cytochrome P450 2C19 (CYP2C19); conditions: ref PubChem database; cited from earlier work
[2] = target: T1, PHOSPHO1 (Homo sapiens, UniProt Q8TCT1); assay: PHOSPHO1 counterscreen; format: biochemical; conditions: read-out: Inhibition of PHOSPHO1
T1 sequence (Q8TCT1 1-267): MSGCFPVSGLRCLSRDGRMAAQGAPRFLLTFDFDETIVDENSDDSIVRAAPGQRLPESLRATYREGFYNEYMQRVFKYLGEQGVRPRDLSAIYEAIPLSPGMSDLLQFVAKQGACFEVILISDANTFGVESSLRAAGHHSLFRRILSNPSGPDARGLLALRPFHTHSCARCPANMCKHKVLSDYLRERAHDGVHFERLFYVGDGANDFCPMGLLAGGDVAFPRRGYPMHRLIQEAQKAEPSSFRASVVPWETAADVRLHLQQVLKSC

[3] = target: PLAP (Homo sapiens, UniProt P05187); assay: PLAP luminescent assay; format: biochemical
Sequence of PLAP (P05187 23-506 limits assumed): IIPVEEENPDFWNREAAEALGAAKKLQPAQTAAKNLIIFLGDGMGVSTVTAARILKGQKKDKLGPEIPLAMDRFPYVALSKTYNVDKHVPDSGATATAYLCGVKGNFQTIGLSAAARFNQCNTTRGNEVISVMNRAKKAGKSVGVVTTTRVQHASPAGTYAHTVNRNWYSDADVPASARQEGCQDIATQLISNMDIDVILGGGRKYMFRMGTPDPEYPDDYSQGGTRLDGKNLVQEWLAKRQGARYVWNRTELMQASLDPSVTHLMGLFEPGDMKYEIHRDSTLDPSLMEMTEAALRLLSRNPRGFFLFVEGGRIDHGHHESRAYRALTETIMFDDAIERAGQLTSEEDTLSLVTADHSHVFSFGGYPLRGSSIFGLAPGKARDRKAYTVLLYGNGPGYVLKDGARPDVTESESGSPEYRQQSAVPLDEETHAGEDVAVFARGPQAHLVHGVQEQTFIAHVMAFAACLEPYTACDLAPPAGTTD

[4] = PAMPA permeability; format: in vitro ADME
[5] = target: T2, TNAP (Homo sapiens, UniProt P05186); assay: TNAP luminescent assay; format: biochemical; conditions: relative to lead compound 1
T2 sequence (P05186 18-501 limits assumed): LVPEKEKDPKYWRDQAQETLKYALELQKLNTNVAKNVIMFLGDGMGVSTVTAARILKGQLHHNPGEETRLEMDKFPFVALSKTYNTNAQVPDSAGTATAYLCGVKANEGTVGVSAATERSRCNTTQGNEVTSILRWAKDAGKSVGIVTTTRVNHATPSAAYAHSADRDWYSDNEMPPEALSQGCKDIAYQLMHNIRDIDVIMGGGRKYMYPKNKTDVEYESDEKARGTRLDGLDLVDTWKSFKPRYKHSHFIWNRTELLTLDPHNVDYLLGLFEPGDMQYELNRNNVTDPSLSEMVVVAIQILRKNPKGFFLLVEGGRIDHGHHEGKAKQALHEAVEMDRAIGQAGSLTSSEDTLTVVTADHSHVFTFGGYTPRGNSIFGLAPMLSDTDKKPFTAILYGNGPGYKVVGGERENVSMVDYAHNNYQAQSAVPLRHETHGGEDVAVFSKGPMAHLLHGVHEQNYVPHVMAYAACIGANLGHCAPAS

[6] = target: T2, TNAP; conditions: cited from earlier work

Row | SMILES | PAMPA (% FLUX) [4] | TNAP inhibitory activity (in words) [5] | other results
1 | COc1ccc(OC)c(S(=O)(=O)Nc2ccc3ccccc3c2)c1 [Compound 12, 2,5-Dimethoxy-N-(naphthalen-2-yl)benzenesulfonamide] |  | loss of activity | 
2 | COc1ccc(OC)c(S(=O)(=O)Nc2ccc3ncccc3c2)c1 [Compound 13, 2,5-Dimethoxy-N-(quinolin-6-yl)benzenesulfonamide] |  | loss of activity | 
3 | COc1cccc(S(=O)(=O)Nc2cnc3ccccc3c2)c1 [Compound 15, 3-Methoxy-N-(quinolin-3-yl)benzenesulfonamide] |  | dramatic loss of activity | 
4 | NC(N)=NCCCC[C@H](N)C(=O)O [L-homoarginine] |  |  | Mode of inhibition versus phosphate-donor substrate [6]: uncompetitive
5 | c1ccc([C@H]2CN3CCSC3=N2)cc1 [levamisole] |  |  | Mode of inhibition versus phosphate-donor substrate [6]: uncompetitive

Second part, led by results:

Row | PAMPA (% FLUX) [4] | TNAP inhibitory activity (in words) [5] | SMILES | other results
6 | 58 % FLUX |  | COc1ccc(OC)c(S(=O)(=O)Nc2cnc3ccccc3c2)c1 [Compound 1, 2,5-Dimethoxy-N-(quinolin-3-yl)benzenesulfonamide] | Activity in Cytochrome P450 2C19 assay [1]: showed activity; inhibition at 10 µM [2]: < 7.4%; IC50 [3]: > 100 µM
7 |  | abolished the inhibitory activity | COc1ccc(OC)c(NS(=O)(=O)c2cnc3ccccc3c2)c1 [Compound 16, N-(2,5-Dimethoxyphenyl)quinoline-3-sulfonamide] | 
8 |  | abolished the inhibitory activity | COc1ccc(OC)c(CNc2cnc3ccccc3c2)c1 [Compound 17] | 
9 | 54 % FLUX |  | COc1ccc(Br)cc1S(=O)(=O)Nc1cnc2ccccc2c1 [Compound 18, 5-Bromo-2-methoxy-N-(quinolin-3-yl)benzenesulfonamide] | 
10 | 7 % FLUX |  | COc1ccc(C)cc1S(=O)(=O)Nc1cnc2ccccc2c1 [Compound 19, 2-Methoxy-5-methyl-N-(quinolin-3-yl)benzenesulfonamide] | 
